# Results published in US11351163B2, “Compositions and methods of treating cancer” (BRISTOL-MYERS SQUIBB COMPANY, priority 2017, dated 2022).
# Legend:
# [1] = Clinical trial of Example 2: safety and tolerability (DLTs, TRAEs), dose escalation and expansion; type: in vivo
# Text: Purpose: The purpose of the study is to, among other things, determine safety and effectiveness of a compound of Formula I (or salt thereof) when combined with nivolumab and in combination with both nivolumab and ipilimumab in patients with cancers that are advanced or have spread. Pharmacokinetics and pharmacodynamics (including immunomodulatory assays) of a compound of Formula I when combined with nivolumab and in combination with nivolumab and ipilimumab in this patient population will also be assessed.
# Primary Outcome Measures: • Safety and tolerability of a compound of Formula I as measured by a composite of the incidence of adverse events (AEs), serious adverse events (SAEs), AEs leading to discontinuation, deaths, and clinical laboratory test abnormalities. The time frame is 100 days after the last dose of study therapy. • Safety of a compound of Formula I plus nivolumab as measured by a composite of the incidence of adverse events (AEs), serious adverse events (SAEs), AEs leading to discontinuation, deaths, and clinical laboratory test abnormalities. The time frame is 100 days after the last dose of study therapy. • Safety of a compound of Formula I plus both nivolumab and ipilimumab as measured by incidence of adverse events (AEs), serious adverse events (SAEs), AEs leading to discontinuation, deaths, and clinical laboratory test abnormalities. The time frame is 100 days after the last dose of study therapy. • Anti-tumor activity of a compound of Formula I administered in combination with nivolumab as measured by the best overall response (BOR) as measured by CT scan. The time frame is approximately 3 years. • Anti-tumor activity of a compound of Formula I administered in combination with nivolumab as measured by the duration of response (DOR) as measured by CT scan. The time frame is approximately 3 years. • Anti-tumor activity of a compound of Formula I administered in combination with nivolumab as measured by progression-free survival rates (PFSRs) as measured by CT scan. The time frame is approximately 3 years. • Anti-tumor activity of a compound of Formula I administered in combination with both nivolumab and ipilimumab as measured by the best overall response (BOR) as measured by CT scan. The time frame is approximately 3 years. • Anti-tumor activity of a compound of Formula I administered in combination with both nivolumab and ipilimumab as measured by the duration of response (DOR) as measured by CT scan. The time frame is approximately 3 years. • Anti-tumor activity of a compound of Formula I administered in combination with both nivolumab and ipilimumab as measured by progression-free survival rates (PFSRs) as measured by CT scan. The time frame is approximately 3 years.
# 1. Combination Therapy (Dose Escalation). Participants with advanced cancers received a compound of Formula I orally (PO), daily (QD) at a dose of 25 mg, 50 mg, 100 mg or 200 mg for all advanced cancers over a 2 week lead-in period. Participants were then also administered nivolumab intravenously at a dose of 240 mg once every two weeks.
# 2. Combination Therapy (Dose Expansion). A total of 219 participants with select previously treated advanced malignancies received a compound of Formula I at a dose of 100 or 200 mg orally once daily plus nivolumab at a dose of 240 mg intravenously once every two weeks (Q2W) or at a dose of 480 mg intravenously once every four weeks (Q4W). Advanced malignancies included cervical cancer (21 patients), diffuse large B-cell lymphoma (DLBCL) (4 patients), non-small cell lung cancer (NSCLC) (7 patients), renal cell carcinoma (RCC) (0 patients); squamous cell carcinoma of the head and neck (SCCHN) (16 patients), bladder cancer (18 patients), pancreatic cancer (18 patients), melanoma (21 patients), and ASST, a mixed tumor type cohort consisting of sarcoma, endometrial and breast cancer (19 patients). […]
# [2] = Clinical trial of Example 10: safety (TRAEs) and end of treatment disposition; type: in vivo
# Text: Primary Outcome Measures: • Safety and tolerability of a compound of Formula I as measured by a composite of the incidence of adverse events (AEs), serious adverse events (SAEs), AEs leading to discontinuation, deaths, and clinical laboratory test abnormalities. The time frame is 100 days after the last dose of study therapy. • Safety of a compound of Formula I plus nivolumab as measured by a composite of the incidence of adverse events (AEs), serious adverse events (SAEs), AEs leading to discontinuation, deaths, and clinical laboratory test abnormalities. […] The time frame is approximately 3 years. • Anti-tumor activity of a compound of Formula I administered in combination with nivolumab as measured by the duration of response (DOR) as measured by CT scan. The time frame is approximately 3 years. • Anti-tumor activity of a compound of Formula I administered in combination with nivolumab as measured by progression-free survival rates (PFSRs) as measured by CT scan. The time frame is approximately 3 years.
# 1. Combination Therapy (Dose Escalation).
# 2. Combination Therapy (Dose Expansion). […] Three patients received the compound of Formula I alone. IDO1 inhibitor therapy is not permitted. Prior exposure to immune checkpoint inhibitors or therapy targeting T-cell costimulation requires a washout period of >4 weeks.
# kynurenine = assay: Kynurenine in paired tumor samples and serum of patients (FIG. 1A, 1B); type: in vivo, human
# Description: FIG. 1A illustrates intratumoral kynurenine concentrations at 100 mg, 200 mg or 400 mg of the compound of Formula (I).
# FIG. 1B illustrates percent serum kynurenine reduction at 20 mg, 50 mg, 100 mg, 200 mg or 400 mg of the compound of Formula (I).
# Dark bars represent a pretreatment kynurenine condition and light bars represent an on-treatment kynurenine (C1D15) condition. Asterisks (*) denotes samples below the lower limit of quantitation.
# [3] = patients with advanced bladder cancer
compound,measurement,setting,value
"C[C@@H](C(=O)Nc1ccc(Cl)cc1)[C@H]1CC[C@@H](c2ccnc3ccc(F)cc32)CC1 [compound of Formula I, (R)-N-(4-chlorophenyl)-2-(cis-4-(6-fluoroquinolin-4-yl)cyclohexyl)propanamide]",# of DLTs/# DLT evaluable,"[1]; 25 mg, dose escalation",0/7
same,# of DLTs/# DLT evaluable,"[1]; 50 mg, dose escalation",0/8
same,# of DLTs/# DLT evaluable,"[1]; 100 mg, dose escalation",1/9
same,# of DLTs/# DLT evaluable,"[1]; 200 mg, dose escalation",3/12
same,# of DLTs/# DLT evaluable,"[1]; 400 mg, dose escalation",2/4
same,DLTs,"[1]; 400 mg, dose escalation","grade 3 AST/ALT; grade 2 anemia, fatigue"
same,Maximum tolerated dose,[1]; during escalation,200 mg
same,tolerability of 100 mg,"[2]; 100 mg vs the 200-mg dose, with nivolumab",improved tolerability vs the 200-mg dose
same,tolerability,[2]; [3],well tolerated
same,treatment-related deaths,[2]; [3],No treatment-related deaths occurred
same,reduction in serum kynurenine levels,"kynurenine; 100 mg once daily, FIG. 1B",~60%
same,intratumoral kynurenine,"kynurenine; 39 paired pre- vs on-treatment (C1D15) tumor samples across various tumor types, FIG. 1A",reduced across all doses
